Measured values reported in patent US20250263457A1, “Pharmaceutical Composition for Preventing and Treating Liver Disease Comprising Novel Peptide” (Pusan National University Industry-University Cooperation …, priority 2024, published 2025).

Tested on: alcohol-related liver disease mouse model
Assay: Fibrosis markers and collagen accumulation in liver tissue of mouse model
Assay type: in vivo, C57BL/6 male mice
Details: 3.3 μg/kg i.p. every other day for three weeks, EtOH diet group, vs vehicle
Excerpt: To prepare alcohol-related liver disease mice, 8-week-old C57BL/6 male mice were fed with a Lieber DeCarli liquid diet (Dyets, 710260) containing 5% EtOH for 9 weeks, and then injected intraperitoneally with a vehicle (PBS) every other day along with feeding liquid diet for additional 3 weeks. As a control group for the EtOH diet, mice fed with a pair Lieber DeCarli liquid diet (Dyets, 710027) having the same total calories as the EtOH diet were used (FIG. 4A).
In most chronic liver diseases, severe inflammatory responses were accompanied by fibrosis. Accordingly, the degree of fibrosis in the liver tissue of the alcohol-related liver disease mouse model established by the method of Example 5.1 in the present disclosure was confirmed through the expression of fibrosis markers using RT-qPCR and Western blot. In addition, the accumulation of collagen in the liver tissue and the expression of α-SMA were confirmed. In addition, the concentration of collagen in the liver tissue was confirmed through Sirius red staining, and the expression of α-SMA was confirmed through immunohistochemical staining. At this time, RT-qPCR and Western blot were performed in the same manner as in Example 2, and immunohistochemical staining (IHC) was performed in the same manner as in Example 5.2.3. In IHC, an anti-α-SMA antibody was used as the primary antibody.
After deparaffinization and hydration of the liver tissue section slides prepared in the same manner as in Example 5.2.3, the section slides were treated with 0.1% Sirius red F3B (Sigma-Aldrich) and 0.1% Fast Green (Sigma-Aldrich) solutions containing saturated picric acid (Sigma-Aldrich) and reacted for 20 minutes. After the staining reaction was completed, the section slides were dehydrated, mounted, and observed under a microscope. […] In addition, it was confirmed that the expression of α-SMA in the liver tissue in the EtOH diet group increased compared to the control group (pair) (FIG. 5D).
The alcohol-related liver disease mouse model established by the method of Example 5.1 was administered vehicle (PBS) or peptide YJ (3.3 μg/kg) intraperitoneally every other day for three weeks, and then blood was collected and liver tissue was extracted to confirm the liver disease treatment effect of peptide YJ.
The degree of fibrosis in the liver tissue extracted from the experimental mice of Example 5.3 was confirmed in the same manner as in Example 5.2.4.

[1] = RT-qPCR, Western blot (FIGS. 7A, 7B)

peptide YJ: TSG-6 fragment: core domain RSGKYKLTYAEAKA plus C-terminal extension VCEFEGGHLATYKQLEAARKIGFHVCAAGWMAK (SEQ ID NO: 9); TSG-6 mimetic (RSGKYKLTYAEAKAVCEFEGGHLATYKQLEAARKIGFHVCAAGWMAK; peptide 4)
significantly reduced: mRNA and protein expression of collagen1α1 in the liver tissue [1] | mRNA and protein expression of vimentin in the liver tissue [1] | mRNA and protein expression of α-SMA in the liver tissue [1] | collagen accumulation in the liver tissue (hydroxyproline assay, Sirius red staining, IHC (α-SMA) (FIGS. 7C, 7D))
